Laboratory results: patent publication US6518243B1, “Desleucyl glycopeptide antibiotics and methods of making same” (Trustees of Princeton University, priority 1999, dated 2003)

Columns and labels:
Test in all cases: Zone of inhibition screen, 96 well agar array format
Type in all cases: cell-based
Parameters in all cases: scale not given here
[1] = tested on: E. faecalis (CL 4877)
In short: (§1)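 Agar-array screen, 96-well; single compounds vs. strain panel (panel also incl. E. faecium ATCC 49624); antibacterial activity scored.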

[2] = tested on: S. epidermidis (ATCC 12228)
In short: as §1

[3] = tested on: S. aureus (ATCC 29213)
In short: as §1

[4] = zone of inhibition relative to 1 mg/ml p-chlorobiphenylvancomycin
[5] = zone of inhibition relative to 1 mg/ml stock solution of p-chlorobiphenylvancomycin

CC1OC(OC2C(Oc3c4cc5cc3Oc3ccc(cc3Cl)C(O)C3NC(=O)C(NC(=O)C5NC(=O)C(CC(N)=O)NC(=O)C(NC(=O)C(CCC(N)=O)NC(=O)CNC(=O)OCc5ccccc5)C(O)c5ccc(c(Cl)c5)O4)c4ccc(O)c(c4)-c4c(O)cc(O)cc4C(C(=O)O)NC3=O)OC(CO)C(O)C2O)CC(C)(NCc2ccc(-c3ccc(Cl)cc3)cc2)C1O (stereo not drawn) [Compound 212]
2: zone score, E. faecalis CL 4877 [1, 4] | zone score, S. epidermidis ATCC 12228 [2, 4] | zone score, S. aureus ATCC 29213 [3, 4]

CC(N)C(=O)NC(C)C(=O)NC1C(=O)NC(CC(N)=O)C(=O)NC2C(=O)NC3C(=O)NC(C(=O)NC(C(=O)O)c4cc(O)cc(O)c4-c4cc3ccc4O)C(O)c3ccc(c(Cl)c3)Oc3cc2cc(c3OC2OC(CO)C(O)C(O)C2OC2CC(C)(NCc3ccc(-c4ccc(Cl)cc4)cc3)C(O)C(C)O2)Oc2ccc(cc2Cl)C1O (stereo not drawn) [Compound 35]
2: zone score, E. faecalis CL 4877 [1, 5] | zone score, S. epidermidis ATCC 12228 [2, 5] | zone score, S. aureus ATCC 29213 [3, 5]

CC1OC(OC2C(Oc3c4cc5cc3Oc3ccc(cc3Cl)C(O)C3NC(=O)C(NC(=O)C5NC(=O)C(CC(N)=O)NC(=O)C(NC(=O)C5CSC(=O)N5)C(O)c5ccc(c(Cl)c5)O4)c4ccc(O)c(c4)-c4c(O)cc(O)cc4C(C(=O)O)NC3=O)OC(CO)C(O)C2O)CC(C)(NCc2ccc(-c3ccc(Cl)cc3)cc2)C1O (stereo not drawn) [Compound 224]
2: zone score, E. faecalis CL 4877 [1, 4] | zone score, S. epidermidis ATCC 12228 [2, 4] | zone score, S. aureus ATCC 29213 [3, 4]

CSCCC(NC=O)C(=O)NC1C(=O)NC(CC(N)=O)C(=O)NC2C(=O)NC3C(=O)NC(C(=O)NC(C(=O)O)c4cc(O)cc(O)c4-c4cc3ccc4O)C(O)c3ccc(c(Cl)c3)Oc3cc2cc(c3OC2OC(CO)C(O)C(O)C2OC2CC(C)(NCc3ccc(-c4ccc(Cl)cc4)cc3)C(O)C(C)O2)Oc2ccc(cc2Cl)C1O (mixture of isomers) [Compound 326]
2: zone score, E. faecalis CL 4877 [1, 4] | zone score, S. epidermidis ATCC 12228 [2, 4] | zone score, S. aureus ATCC 29213 [3, 4]

CCC(O)C(=O)NC1C(=O)NC(CC(N)=O)C(=O)NC2C(=O)NC3C(=O)NC(C(=O)NC(C(=O)O)c4cc(O)cc(O)c4-c4cc3ccc4O)C(O)c3ccc(c(Cl)c3)Oc3cc2cc(c3OC2OC(CO)C(O)C(O)C2OC2CC(C)(NCc3ccc(-c4ccc(Cl)cc4)cc3)C(O)C(C)O2)Oc2ccc(cc2Cl)C1O (mixture of isomers) [Compound 286]
2: zone score, E. faecalis CL 4877 [1, 4] | zone score, S. epidermidis ATCC 12228 [2, 4] | zone score, S. aureus ATCC 29213 [3, 4]

CC1OC(OC2C(Oc3c4cc5cc3Oc3ccc(cc3Cl)C(O)C3NC(=O)C(NC(=O)C5NC(=O)C(CC(N)=O)NC(=O)C(NC(=O)C5CNCCO5)C(O)c5ccc(c(Cl)c5)O4)c4ccc(O)c(c4)-c4c(O)cc(O)cc4C(C(=O)O)NC3=O)OC(CO)C(O)C2O)CC(C)(NCc2ccc(-c3ccc(Cl)cc3)cc2)C1O (mixture of isomers) [Compound 23]
2: zone score, E. faecalis CL 4877 [1, 5] | zone score, S. epidermidis ATCC 12228 [2, 5] | zone score, S. aureus ATCC 29213 [3, 5]

CC1OC(OC2C(Oc3c4cc5cc3Oc3ccc(cc3Cl)C(O)C3NC(=O)C(NC(=O)C5NC(=O)C(CC(N)=O)NC(=O)C(NC(=O)CCO)C(O)c5ccc(c(Cl)c5)O4)c4ccc(O)c(c4)-c4c(O)cc(O)cc4C(C(=O)O)NC3=O)OC(CO)C(O)C2O)CC(C)(NCc2ccc(-c3ccc(Cl)cc3)cc2)C1O (stereo not drawn) [Compound 106]
2: zone score, E. faecalis CL 4877 [1, 5] | zone score, S. epidermidis ATCC 12228 [2, 5] | zone score, S. aureus ATCC 29213 [3, 5]

CC1OC(OC2C(Oc3c4cc5cc3Oc3ccc(cc3Cl)C(O)C3NC(=O)C(NC(=O)C5NC(=O)C(CC(N)=O)NC(=O)C(NC(=O)c5c[nH]cn5)C(O)c5ccc(c(Cl)c5)O4)c4ccc(O)c(c4)-c4c(O)cc(O)cc4C(C(=O)O)NC3=O)OC(CO)C(O)C2O)CC(C)(NCc2ccc(-c3ccc(Cl)cc3)cc2)C1O (stereo not drawn) [Compound 272]
2: zone score, E. faecalis CL 4877 [1, 4] | zone score, S. epidermidis ATCC 12228 [2, 4] | zone score, S. aureus ATCC 29213 [3, 4]

CC(NC(=O)OCc1ccccc1)C(=O)NCC(=O)NCC(=O)NC1C(=O)NC(CC(N)=O)C(=O)NC2C(=O)NC3C(=O)NC(C(=O)NC(C(=O)O)c4cc(O)cc(O)c4-c4cc3ccc4O)C(O)c3ccc(c(Cl)c3)Oc3cc2cc(c3OC2OC(CO)C(O)C(O)C2OC2CC(C)(NCc3ccc(-c4ccc(Cl)cc4)cc3)C(O)C(C)O2)Oc2ccc(cc2Cl)C1O (stereo not drawn) [Compound 209]
2: zone score, E. faecalis CL 4877 [1, 4] | zone score, S. epidermidis ATCC 12228 [2, 4] | zone score, S. aureus ATCC 29213 [3, 4]

CC1OC(OC2C(Oc3c4cc5cc3Oc3ccc(cc3Cl)C(O)C(NC(=O)C(F)(F)C(F)(F)C(F)(F)F)C(=O)NC(CC(N)=O)C(=O)NC5C(=O)NC3C(=O)NC(C(=O)NC(C(=O)O)c5cc(O)cc(O)c5-c5cc3ccc5O)C(O)c3ccc(c(Cl)c3)O4)OC(CO)C(O)C2O)CC(C)(NCc2ccc(-c3ccc(Cl)cc3)cc2)C1O (stereo not drawn) [Compound 290]
2: zone score, E. faecalis CL 4877 [1, 4] | zone score, S. epidermidis ATCC 12228 [2, 4] | zone score, S. aureus ATCC 29213 [3, 4]
